Assay results reported in patent US20110224240A1 (Myrexis, Inc., priority 2010, published 2011).

Legend:
Assay in all cases: Multidrug resistant cell assay, cytotoxicity
NCI/ADR-Res (MDR-1) = settings: 72 h, read-out: Various MDR Cell Line Cytotoxicity IC50
MCF-7 = type: cell-based; settings: Homo sapiens, MCF7, 72 h, read-out: Various MDR Cell Line Cytotoxicity IC50
P388/ADR (MDR-1) = type: cell-based; settings: 72 hours, read-out: Various MDR Cell Line Cytotoxicity IC50
Method: P388/ADR cell lines were obtained from American Type Culture Collection (Manassas, Va.) and maintained in RPMI-1640 media supplemented with 10% FCS, 10 units/ml penicillin and streptomycin, 2 mM Glutamax and 1 mM sodium pyruvate (Invitrogen Corporation, Carlsbad, Calif.). […] Cells were allowed to adhere to the plate overnight and then incubated with the compound at final concentrations ranging from 0.13 nM to 10 uM for 72 hours. Cell viability was then assessed using the ATP-lite reagent (Perkin Elmer, Foster City, Calif.). Plates were read on a Wallac Topcount luminescence reader (Perkin Elmer, Foster City, Calif.) and the results graphed in Prism software (Graphpad Software, Inc., San Diego, Calif.). Non-linear regression with variable slope analysis was performed to obtain IC50 concentration values.

P388 = type: cell-based, murine; settings: Mus musculus; P388; 72 hours; read-out: Various MDR Cell Line Cytotoxicity IC50
MCF-7/VP (MRP-1) = settings: Homo sapiens, MCF7-VP, 72 h, read-out: Various MDR Cell Line Cytotoxicity IC50
MCF-7/MX (BCRP-1) = type: cell-based; settings: MCF7/MX, 72 h, read-out: Various MDR Cell Line Cytotoxicity IC50

## CC(=O)O[C@@]12CO[C@@H]1C[C@H](O)[C@@]1(C)C(=O)[C@H](O)C3=C(C)[C@@H](OC(=O)[C@H](O)[C@@H](NC(=O)OC(C)(C)C)c4ccccc4)C[C@@](O)([C@@H](OC(=O)c4ccccc4)[C@H]21)C3(C)C [Docetaxel, docetaxel]
NCI/ADR-Res (MDR-1)
  IC50: 900 nM
MCF-7
  IC50: 13 nM
P388/ADR (MDR-1)
  IC50: 200 nM
P388
  IC50: 3.3 nM

## COc1cccc2c1C(=O)c1c(O)c3c(c(O)c1C2=O)C[C@@](O)(C(=O)CO)C[C@@H]3O[C@H]1C[C@H](N)[C@@H](O)[C@H](C)O1 [Epirubicin, epirubicin, reference compound]
MCF-7/VP (MRP-1)
  IC50: 2100 nM
MCF-7
  IC50: 160 nM
MCF-7/MX (BCRP-1)
  IC50: 400 nM

## CC[C@]1(O)C[C@@H]2CN(CCc3c([nH]c4ccccc34)[C@@](C(=O)OC)(c3cc4c(cc3OC)N(C)[C@H]3[C@@](O)(C(=O)OC)[C@H](OC(C)=O)[C@]5(CC)C=CCN6CC[C@]43[C@@H]65)C2)C1 [Vinblastine, vinblastine]
NCI/ADR-Res (MDR-1)
  IC50: 100 nM
MCF-7
  IC50: 1.4 nM
P388/ADR (MDR-1)
  IC50: 8.3 nM
P388
  IC50: 0.5 nM
